Test results as given in patent US10526580B2, “Differentiated cell population of endothelial cells derived from human pluripotent stem cells, composition, system, kit and uses thereof” (BIOCANT-ASSOCIAÇÃO DE TRANSFERÊNCIA DE TECNOLOGIA, priority 2012, dated 2020).
Counter-ions that a name gives are not always drawn.

These compounds were tested on hESC-derived ECs versus HUAECs (assay: High-throughput screening of LOPAC library, PrestoBlue cell viability, hESC-derived ECs versus HUAECs). Conditions: LOPAC screen, 4.5 μM, 4 days, PrestoBlue assay.
Assay type: cell-based, human
Protocol: (§1) High-throughput screening (HTS). HUAECS (Lonza) and hESC-derived ECs were cultured in EGM-2 medium while human anterior cruciate ligament cells (ACL cells) were cultured in Dulbecco's modified Eagle's medium (DMEM; PAA) supplemented with 10% FBS, 0.2 mM ascorbic acid 2-phosphate magnesium salt (Sigma Aldrich), […] streptomycin and 100 U/mL penicillin (Life Technologies). ACL cells were isolated from patients that have signed an informed consent form, in compliance with the Dutch legislation. The ethical committee of Medisch Spectrum Twente Hospital approved the collection.
(§2) The LOPAC library (Sigma-Aldrich) was used to screen embryonic endothelial-specific cytotoxic compounds. The compounds were solubilized in DMSO. The final compound concentration used in the screen was 4.5 μM in a final volume of 200 μL per well (96-well plate). HUAECs, hESC-derived EC and ACL cells were seeded at 16,000 cells/well (HUAECs and hESC-derived ECs) and 5,000 cells/well (ACL cells) and allowed to reach near confluence (approximately two days). After two days, medium was exchanged and test compounds and controls were added to the 96-well plates (all wells contained 0.25% (v/v) DMSO). After 4 days of incubation, cell viability was assessed using a PrestoBlue (Invitrogen) assay. This assay is based on a resazurin-based solution that indicates the reducing power of living cells and therefore measures indirectly their number. For each measurement, cell medium was removed and the PrestoBlue solution (10%) was added for 3 h at 37° C. upon which the absorbance was measured at 560-590 nm.
(§3) Disruption of vascular development has been directly correlated with prenatal loss, malformations and neurodevelopmental problems^41-44. […] The library was screened at a single dosage of 4.5 μM in a volume of 200 μL per well of EGM-2 medium, containing 0.25% DMSO (v/v). […] Six compounds (danazol, chlorpromazine hydrochloride, ellipticine, 3′,4′-dichlorobenzamil, fluphenazine dihydrochloride and 7-cyclopentyl-5-(4-phenoxy)phenyl-7H-pyrrolo[2,3-d]pyrimidin-4-ylamine) affected cell viability in both cells by a difference of 20% (FIG. 4B). The six compounds belong to different classes: cell cycle, ion pumps, dopamine pathway, phosphorylation and hormone signaling. The compounds selected from the primary screen were then tested against hESC-derived ECs and HUAECs at eight different concentrations to obtain a dose-response curve (FIG. 4C and FIG. 14).

N/C(=N\C(=O)c1nc(Cl)c(N)nc1N)NCc1ccc(Cl)c(Cl)c1 [3′,4′-Dichlorobenzamil] and Cc1c2ccncc2c(C)c2c1[nH]c1ccccc12 [Ellipticine] are the same in “difference in cell viability between hESC-derived ECs and HUAECs” value: 20% for the first, 20% for the second.

CN(C)CCCN1c2ccccc2Sc2ccc(Cl)cc21 [Chlorpromazine hydrochloride] and OCCN1CCN(CCCN2c3ccccc3Sc3ccc(C(F)(F)F)cc32)CC1 [Fluphenazine dihydrochloride] are the same in “difference in cell viability between hESC-derived ECs and HUAECs” value: 20% for the first, 20% for the second.

In the case of C#C[C@]1(O)CC[C@H]2[C@@H]3CCC4=Cc5oncc5C[C@]4(C)[C@H]3CC[C@@]21C [Danazol], the “difference in cell viability between hESC-derived ECs and HUAECs” value is reported as 20%.

The compounds below were run on hESC-derived ECs versus ACL cells (assay: High-throughput screening of LOPAC library, PrestoBlue cell viability, hESC-derived ECs versus ACL cells). Conditions: not given.
Assay type: cell-based, human
Protocol: as §1, §2, §3

With N#CC(=C(/N)Sc1ccccc1N)/C(C#N)=C(\N)Sc1ccccc1N [U0126] the “Differences (%) in cell viability (hESC-Derived ECs versus ACL cells)” value (from here on “Differences (%) in cell viability”) was 68.9%.

Same assay, conditions: LOPAC screen, 4.5 μM, 4 days of incubation, PrestoBlue assay

First: N/C(=N\C(=O)c1nc(Cl)c(N)nc1N)NCc1ccc(Cl)c(Cl)c1 [3′,4′-Dichlorobenzamil]
Second: CN(C)CCCN1c2ccccc2Sc2ccc(Cl)cc21 [Chlorpromazine hydrochloride]
The “Differences (%) in cell viability” value of the first is lower: 54.2% for the first, 57.2% for the second.

First: C#C[C@]1(O)CC[C@H]2[C@@H]3CCC4=Cc5oncc5C[C@]4(C)[C@H]3CC[C@@]21C [Danazol]
Second: Cc1c2ccncc2c(C)c2c1[nH]c1ccccc12 [Ellipticine]
The “Differences (%) in cell viability” value of the first is lower: 52.7% for the first, 58.5% for the second.

Compared with OCCN1CCN(CCCN2c3ccccc3Sc3ccc(C(F)(F)F)cc32)CC1 [Fluphenazine dihydrochloride], COc1cc([C@@H]2c3cc4c(cc3[C@H](O)[C@H]3COC(=O)[C@H]23)OCO4)cc(OC)c1OC [Podophyllotoxin] is higher in “Differences (%) in cell viability” value: 51.4% for the first, 75.7% for the second.

Going from CCC(=O)c1ccc2c(c1)N(CCCN(C)C)c1ccccc1S2 [Propionylpromazine hydrochloride] to CCN(CC)C(=O)N[C@H]1C[C@@H]2c3cccc4[nH]cc(c34)C[C@H]2N(C)C1 [R(+)-Terguride], the “Differences (%) in cell viability” value rises from 50.3% to 57.1%.

First: Cc1nc2n(c(=O)c1CCN1CCC(c3noc4cc(F)ccc34)CC1)CCCC2 [Risperidone]
Second: CC(=O)c1c(O)c(C)c(O)c(Cc2c(O)c3c(c(C(=O)/C=C/c4ccccc4)c2O)OC(C)(C)C=C3)c1O [Rottlerin]
The “Differences (%) in cell viability” value of the first is lower: 56.9% for the first, 61.6% for the second.

Compared with CCCN1CCC[C@@H](c2cccc(O)c2)C1.Cl [S(−)-3PPP hydrochloride], N[C@@H](Cn1cc(I)c(=O)[nH]c1=O)C(=O)O [S-5-lodowillardiine] is higher in “Differences (%) in cell viability” value: 51.8% for the first, 52.8% for the second.

Compared with [N-]=[N+]=Nc1ccc(C(=O)CSC[C@H](NC(=O)CC[C@H](N)C(=O)O)C(=O)NCC(=O)O)cc1 [S-(p-Azidophenacyl)glutathione], Cc1nc(-c2ccc(-c3ccc(C(=O)N4CCc5cc6c(cc54)C4(CCN(C)CC4)CO6)cc3)c(C)c2)no1 [SB 224289 hydrochloride] is higher in “Differences (%) in cell viability” value: 61.3% for the first, 96.7% for the second.

First: COc1cc2c(cc1C(F)(F)F)N(C(=O)Nc1cc(F)cc(-c3cccnc3)c1)CC2 [SB 228357]
Second: Br.CN=c1nc(-c2ccccc2)n(-c2ccccc2)s1 [SCH-202676 hydrobromide]
The “Differences (%) in cell viability” value of the first is higher: 62.7% for the first, 53.2% for the second.

Going from COc1ccc(CCCOC(Cn2ccnc2)c2ccc(OC)cc2)cc1 (centres unmarked) [SKF 96365] to O=C(O)c1ccccc1Nc1cccc(OCc2ccc3ccccc3n2)c1 [SR 2640], the “Differences (%) in cell viability” value falls from 69.8% to 53.0%.

Compared with CN(C)S(=O)(=O)c1ccc2c(c1)/C(=C/c1cc3c([nH]1)CCCC3)C(=O)N2 [SU 6656], C[n+]1cc2c3c(ccc2c2ccc4cc5c(cc4c21)OCO5)OCO3 [Sanguinarine chloride] is higher in “Differences (%) in cell viability” value: 61.5% for the first, 96.4% for the second.

Going from C/C(=C\c1ccc(C(=O)O)cc1)c1ccc2c(c1)C(C)(C)CCC2(C)C [TTNPB] to CC/C(=C(\c1ccccc1)c1ccc(OCCN(C)C)cc1)c1ccccc1 [Tamoxifen citrate], the “Differences (%) in cell viability” value rises from 92.6% to 98.3%.

Going from CC(=O)O[C@H]1C(=O)[C@@]2(C)[C@H]([C@H](OC(=O)c3ccccc3)[C@]3(O)C[C@H](OC(=O)[C@H](O)[C@@H](NC(=O)c4ccccc4)c4ccccc4)C(C)=C1C3(C)C)[C@]1(OC(C)=O)CO[C@@H]1C[C@@H]2O [Taxol] to Cc1scc2c1N(C(=O)CN1CCN(C)CC1)c1ccccc1NC2=O [Telenzepine dihydrochloride], the “Differences (%) in cell viability” value falls from 78.1% to 68.9%.

First: CC(C)(C)c1ccc(C(O)CCCN2CCC(C(O)(c3ccccc3)c3ccccc3)CC2)cc1 (centres unmarked) [Terfenadine]
Second: C/C=C(/C)C(=O)O[C@H]1C(C)=C2[C@H]([C@@H]1OC(=O)CCCCCCC)[C@@](C)(OC(C)=O)C[C@H](OC(=O)CCC)[C@@]1(O)[C@H]2OC(=O)[C@@]1(C)O [Thapsigargin]
The “Differences (%) in cell viability” value of the first is higher: 98.3% for the first, 94.8% for the second.

Compared with CSc1ccc2c(c1)N(CCC1CCCCN1C)c1ccccc1S2 (centres unmarked) [Thioridazine hydrochloride], CNCC[C@@H](Oc1ccccc1C)c1ccccc1 [Tomoxetine] is higher in “Differences (%) in cell viability” value: 51.6% for the first, 68.7% for the second.

Compared with COc1cc2c(cc1OC)-c1c/c(=N\c3c(C)cc(C)cc3C)n(C)c(=O)n1CC2 [Trequinsin hydrochloride], CN1CCN(CCCN2c3ccccc3Sc3ccc(C(F)(F)F)cc32)CC1 [Trifluoperazine dihydrochloride] is higher in “Differences (%) in cell viability” value: 50.7% for the first, 54.0% for the second.

Going from CN(C)CCCN1c2ccccc2Sc2ccc(C(F)(F)F)cc21 [Triflupromazine hydrochloride] to CC(C)(C)c1cc(C=C(C#N)C#N)cc(C(C)(C)C)c1O [Tyrphostin A9], the “Differences (%) in cell viability” value rises from 53.0% to 69.5%.

Going from N#C/C(=C\c1ccc(O)c(O)c1)C(=O)NCc1ccccc1 [Tyrphostin AG 490] to C[C@@H](NC(=O)/C(C#N)=C/c1ccc(O)c(O)c1)c1ccccc1 [Tyrphostin AG 527], the “Differences (%) in cell viability” value falls from 56.3% to 53.4%.

First: N#C/C(=C\c1ccc(O)c(O)c1)C(=O)NCCCNC(=O)/C(C#N)=C/c1ccc(O)c(O)c1 [Tyrphostin AG 537]
Second: CC(C)(C)c1cc(/C=C(\C#N)C(N)=S)cc(C(C)(C)C)c1O [Tyrphostin AG 879]
The “Differences (%) in cell viability” value of the first is lower: 52.3% for the first, 54.4% for the second.

Going from C[C@]12C=CC(=O)C=C1CC[C@@H]1C2=CC[C@]2(C)[C@@H](C(=O)CN3CCN(c4cc(N5CCCC5)nc(N5CCCC5)n4)CC3)CC[C@@H]12.O=C(O)/C=C\C(=O)O [U-74389G maleate] to Cc1c(C)c2c(c(C)c1O)CCC(C)(CN1CCN(c3cc(N4CCCC4)nc(N4CCCC4)n3)CC1)O2.Cl.Cl (centres unmarked) [U-83836 dihydrochloride], the “Differences (%) in cell viability” value falls from 51.6% to 51.3%.

Compared with CC[C@]1(O)C[C@H]2CN(CCc3c([nH]c4ccccc34)[C@@](C(=O)OC)(c3cc4c(cc3OC)N(C=O)[C@H]3[C@@](O)(C(=O)OC)[C@H](OC(C)=O)[C@]5(CC)C=CCN6CC[C@]43[C@@H]65)C2)C1 [Vincristine sulfate], COC[C@H]1OC(=O)c2coc3c2[C@@]1(C)C1=C(C3=O)[C@@H]2CCC(=O)[C@@]2(C)C[C@H]1OC(C)=O [Wortmannin from Penicillium funiculosum, Wortmannin] is lower in “Differences (%) in cell viability” value: 89.2% for the first, 57.9% for the second.

Compared with CC(Oc1ccc(Oc2cnc3ccc(Cl)cc3n2)cc1)C(=O)O (centres unmarked) [XK469], COc1cc(-c2ccc(=O)[nH]n2)ccc1OC(F)F [Zardaverine] is higher in “Differences (%) in cell viability” value: 75.9% for the first, 84.0% for the second.

First: Cl.Cl.OCCN1CCN(CC/C=C2/c3ccccc3Sc3ccc(C(F)(F)F)cc32)CC1 [cis-(Z)-Flupenthixol dihydrochloride]
Second: (±)-Butaclamol hydrochloride
The “Differences (%) in cell viability” value of the first is higher: 69.6% for the first, 53.6% for the second.

First: Ivermectin
Second: R-(−)-Fluoxetine hydrochloride
The “Differences (%) in cell viability” value of the first is higher: 78.7% for the first, 54.5% for the second.

Vinblastine sulfate salt was tested, and the “Differences (%) in cell viability” value was 92.8%.
